The values below come from publication PMC10895668, “Lead Optimization of the 5-Phenylpyrazolopyrimidinone NPD-2975 toward Compounds with Improved Antitrypanosomal Efficacy” (Journal of Medicinal Chemistry, 2024).

Where two headings read alike, the source gives them in different places. Where only a bound is given, the exact number is not on record here.

Data set [1] concerns MRC-5 cells. Description: MRC-5SV2 cytotoxicity assay. The data set is classed as cell-based. As to conditions: Homo sapiens, MRC5, 72 h; cytotoxicity, 3 days incubation; mean ± SD, n ≥ 2; read-out: pIC50 MRC-5 (converted). As to the method: The synthesized analogues were tested against T. b. brucei, and inhibition of MRC-5 (human lung fibroblasts MRC-5SV40) cell proliferation was included as cytotoxicity control. […] Analogue 17 with an amino group instead of the carbonyl group was prepared to improve solubility for further modification. […] In vitro experiments were carried out with the bloodstream form of the T. b. brucei Squib strain (suramin-sensitive). […] All cultures and assays were conducted at 37 °C under an atmosphere of 5% CO2. […] Cell growth is compared to untreated-control wells (100% cell growth) and medium-control wells (0% cell growth). […] After 4 h at 37 °C, fluorescence is measured (λex 550 nm, λem 590 nm). The results are expressed as % reduction in cell growth/viability compared to control wells and an IC50 and an IC90 (50 and 90% inhibitory concentrations) are determined.

A further data set concerns Leishmania infantum. Description: Antiparasitic assay, L. infantum. Conditions: mean ± SD, n ≥ 2, read-out: pIC50 L. infantum (converted). The class given is cell-based. As to the method:
(§1) First, they were tested in vitro against the protozoan species Trypanosoma cruzi and Leishmania infantum and the clinically relevant T. b. rhodesiense.
(§2) The antiparasitic assays were carried out exactly as described in Blaazer et al.([39]) Metabolic stability, pharmacokinetics, acute mouse infection model results were collected as described previously.[21] All animal experiments were conducted in compliance with institutional guidelines and following approval by the Ethical Committee of the University of Antwerp, Belgium [UA-ECD 2014–96]. Female Swiss mice (15–20 g), were purchased from Janvier (Le Genest Saint Isle, France). […] Animals were treated PO b.i.d. for 5 days at 25 and 50 mg/kg 31c. For the SL-RNA qPCR experiments blood was collected sublingually and subjected to erythrocyte lysis before extracting RNA with the QIAamp RNA Blood Mini kit (Qiagen). […] Small pieces of fat, brain, and spleen tissue were excised and immediately transferred to RNA later (Qiagen) and incubated overnight at 4 °C. RNA extraction was performed as instructed in the RNeasy Mini Plus Kit manual (Qiagen). The one-step SensiFAST SYBR Hi-Rox PCR kit (Bioline USA Inc., via Gentaur Belgium BVBA, Kampenhout, Belgium) was used for the PCR with the following forward and reverse primers, respectively 5′-[…]-3′ and 5′-[…]-3′. […]

The test system of another data set is Trypanosoma cruzi. Description: Antiparasitic assay, T. cruzi. The data set is classed as cell-based. Conditions: mean ± SD, n ≥ 2, read-out: pIC50 T. cruzi (converted). As to the method: as §1, §2
The conditions of data set [2]: human, microsomes, 1 h.
Data set [3] has as its system T. b. brucei. Nature of the data set: Trypanosoma susceptibility assay (resazurin viability). The data set is classed as cell-based. The method, then: (§3) The antiparasitic assays were carried out exactly as described in Blaazer et al.([39]) Metabolic stability, pharmacokinetics, acute mouse infection model results were collected as described previously.[21] All animal experiments were conducted in compliance with institutional guidelines and following approval by the Ethical Committee of the University of Antwerp, Belgium [UA-ECD 2014–96]. Female Swiss mice (15–20 g), were purchased from Janvier (Le Genest Saint Isle, France). […] Animals were treated PO b.i.d. for 5 days at 25 and 50 mg/kg 31c. For the SL-RNA qPCR experiments blood was collected sublingually and subjected to erythrocyte lysis before extracting RNA with the QIAamp RNA Blood Mini kit (Qiagen). […] Small pieces of fat, brain, and spleen tissue were excised and immediately transferred to RNA later (Qiagen) and incubated overnight at 4 °C. RNA extraction was performed as instructed in the RNeasy Mini Plus Kit manual (Qiagen). The one-step SensiFAST SYBR Hi-Rox PCR kit (Bioline USA Inc., via Gentaur Belgium BVBA, Kampenhout, Belgium) was used for the PCR with the following forward and reverse primers, respectively 5′-[…]-3′ and 5′-[…]-3′. An initial activation step of 10 min at 45 °C and 10 min at 95 °C was used, followed by the amplification step for 40 cycles (15 s at 95 °C, 15 s 50 °C and 15 s at 60 °C). At last, the melting curves were generated with an increment of 0.3 °C (15 s at 95 °C 1 min at 45 °C and 15 s at 95 °C). The PCR was run on the Step One Plus real-time PCR system (Applied Biosystems, California, USA). An additional qPCR was performed with the mouse housekeeping gene Eef2 to confirm successful RNA extraction.
In vitro experiments were carried out with the bloodstream form of the T. b. brucei Squib strain (suramin-sensitive). Parasites were routinely cultured in T25 culture flasks containing 10 mL of HMI-9 medium (Invitrogen) supplemented with 10% heat-inactivated fetal bovine serum (Life Technologies) and 2.5 μg/mL Geneticin (Life Technologies). MRC-5SV2 cells were cultured in MEM + Earl’s salts-medium, supplemented with 2 mM L-glutamine, 16.5 mM NaHCO3, and 5% inactivated fetal calf serum. All cultures and assays were conducted at 37 °C under an atmosphere of 5% CO2.
Parasites were counted in a KOVA counting chamber and diluted to 1.5 × 10^4 parasites/well of a 96-well plate (200 μL total volume), upon which the prediluted test compounds were added. Drug exposure covered a 72 h period without renewal of the culture medium. After 3 days of incubation, parasite growth was assessed fluorimetrically after addition of 50 μL of resazurin per well. After 6 h (T. b. rhodesiense) or 24 h (T. b. brucei) at 37 °C, fluorescence is measured (λex 550 nm, λem 590 nm). Parasite viability was assessed using the resazurin viability assay, and drug activity was calculated as percentage viability reduction compared to nontreated controls.
Background: Alamar Blue is a resazurin reagent that responds to reducing activity.

A further data set has as its system T. b. rhodesiense. The description is as above. The data set is classed as cell-based. As to conditions: Trypanosoma brucei, mean ± SD, n ≥ 2, read-out: pIC50 T. b. rhodesiense (converted). As to the method:
The antiparasitic assays were carried out exactly as described in Blaazer et al.([39]) Metabolic stability, pharmacokinetics, acute mouse infection model results were collected as described previously.[21] All animal experiments were conducted in compliance with institutional guidelines and following approval by the Ethical Committee of the University of Antwerp, Belgium [UA-ECD 2014–96]. Female Swiss mice (15–20 g), were purchased from Janvier (Le Genest Saint Isle, France). […] Animals were treated PO b.i.d. for 5 days at 25 and 50 mg/kg 31c. For the SL-RNA qPCR experiments blood was collected sublingually and subjected to erythrocyte lysis before extracting RNA with the QIAamp RNA Blood Mini kit (Qiagen). […]
Parasites were counted in a KOVA counting chamber and diluted to 1.5 × 10^4 parasites/well of a 96-well plate (200 μL total volume), upon which the prediluted test compounds were added. […] After 3 days of incubation, parasite growth was assessed fluorimetrically after addition of 50 μL of resazurin per well. After 6 h (T. b. rhodesiense) or 24 h (T. b. brucei) at 37 °C, fluorescence is measured (λex 550 nm, λem 590 nm). Parasite viability was assessed using the resazurin viability assay, and drug activity was calculated as percentage viability reduction compared to nontreated controls.

The subject of data set [4] is peritoneal mouse macrophages (PMM). Nature of the data set: Cytotoxicity on peritoneal mouse macrophages. The data set is classed as cell-based. As to conditions: Macrophage, n ≥ 2.
For data set [5] the following is noted: mouse, microsomes.
Data set [6] relates to MRC-5 cells. Conditions: Figure 1; previously reported series ref 21; cited from earlier work.
Another data set in a line: in vivo. Conditions: female, Swiss, mouse, in vivo. As to the method: as §3
Blood drops were sampled before treatment and at 0.5, 1, 2, 4, 6, and 24 h after PO dosage; samples after IP dosage were identical with an additional time point of 0.25 h. The blood drops were analyzed adopting the dry blood spot technique and analysis by LC-MS^2. Briefly, blood was collected from the retro-orbital complex using capillary tubes and dropped (15 μL) on WhatmanFTADMPK cards (B). The spots were left to air-dry at room temperature for at least 2 h. For analysis, a 6 mm disk was punched out and extracted in 75:25 MeCN/water containing the internal standard tolbutamide. The amount of parent compound was determined using liquid chromatography (UPLC) (Waters Aquity) coupled with tandem quadrupole mass spectrometry (MS^2) (Waters Xevo) equipped with an electrospray ionization (ESI) interface and operated in multiple reaction monitoring mode. Standard curves in whole blood were made for calibration and validation. Standard PK parameters were determined using Topfit software.
Brain tissue of the animals was collected on ice at autopsy 24 h post-treatment (50 mg/kg oral dose) after perfusion. […] The tissues were immediately homogenized using a GentleMacs tissue homogenizer. The tissue samples were subjected to protein precipitation by adding MeCN, followed by a centrifugation step at 4 °C for 5 min at 21, 130 g. The supernatant was further diluted in 75:25 MeCN/water for LC-MS^2 analysis as described above.

For data set [7], the system named is T. b. brucei. The arrangement: method as in PMID 37471520. Conditions: previous in vivo results ref 21, cited from earlier work.

With `O=c1[nH]c(-c2ccc(F)cc2)nc2c(C3CCCC3)n[nH]c12` [31a, 3-Cyclopentyl-5-(4-fluorophenyl)-1,6-dihydro-7H-pyrazolo[4,3-d]pyrimidin-7-one], the IC50 is greater than 63.1 µM in the data set with MRC-5 cells [1]; greater than 63.1 µM with Leishmania infantum; greater than 63.1 µM in the data set with Trypanosoma cruzi; 0.01 µM with T. b. brucei [3] (Trypanosoma brucei, 72 h, T. b. brucei Squib bloodstream form, 72 h exposure, mean ± SD, n ≥ 2, read-out: pIC50 T. brucei (converted)); 0.01 µM in the data set on T. b. rhodesiense; greater than 63.1 µM in data set [4]. The parent compound remaining entry in data set [2] and in data set [5] (1 h) was “at least 69%” throughout. Moreover, the “improved potency compared to 2” value in the data set on T. b. brucei [3] (T. brucei, versus compound 2) was determined as 6 fold. The “time within which compound was metabolized” value in data set [5] is listed as no more than 15 min.

By Tmax is commonly meant the time at which the peak concentration occurs. As to `CC(C)c1n[nH]c2c(=O)[nH]c(-c3ccc(F)cc3)nc12` [compound 2], the IC50 (in the data set on MRC-5 cells [1]; in [4]) was greater than 63.1 µM throughout. Also, the “MRC-5 pIC50” value in the data set with MRC-5 cells [6] is less than 4.2. Also, the time of peak concentration (Tmax) at 24 h in “in vivo” (ip, 10 mg/kg) was 0.25 h; in the data set “in vivo” (po, 50 mg/kg) it was 3 ± 1.5 h. The survival entry with T. b. brucei [7] (25 mg/kg group) was “all animals died at 11 days postinfection”; in the data set on T. b. brucei [7] (50 mg/kg dose) it was “all animals survived until the end of the experiment”.
